Results as given in article PMC2861356 (Clinical cancer research : an official journal of the …, 2009).
Read-outs that look alike come from different tables or passages of the source. Values belong to the molecule of their own block, whether it stands above or below them.

Columns and labels:
[1] = system: surgically incurable GIST; settings: cited from earlier work
clinical [2] = settings: human, plasma, oral; for Cmax: Imatinib Cmax, mean ± SD; for Tmax: Imatinib tmax, median (range)
[3] = system: imatinib-resistant gastrointestinal stromal tumors (GIST); test: Tumor response; type: in vivo, human
[4] = system: patients with advanced imatinib-resistant gastrointestinal stromal tumors (GIST)
clinical [5] = settings: human, serum, oral
[6] = Nilotinib serum pharmacokinetics at steady-state
GIST = GIST after imatinib; cited from earlier work
[7] = Cohort 2 (n=6), imatinib 400 mg bid with nilotinib 200 mg qd, Day 8
[8] = 400 mg, Cohort 3 (n=7), imatinib 400 mg bid alone, Day -1
[9] = 400 mg, Cohort 3 (n=7), imatinib 400 mg bid with nilotinib 400 mg qd, Day 8

Imatinib Cavg, mean ± SD (Cohort 2 (n=6), imatinib 400 mg bid alone, Day -1): 2381 ± 1181 ng/mL | Imatinib Cavg, mean ± SD [7]: 2768 ± 1039 ng/mL | Imatinib Cavg, mean ± SD (Cohort 3 (n=7), imatinib 400 mg bid alone, Day -1): 3594 ± 2195 ng/mL | Imatinib Cavg, mean ± SD (Cohort 3 (n=7), imatinib 400 mg bid with nilotinib 400 mg qd, Day 8): 3735 ± 1212 ng/mL | Imatinib Cavg, mean ± SD (Cohort 4 (n=5), imatinib 400 mg bid alone, Day -1): 3556 ± 1523 ng/mL | Imatinib Cavg, mean ± SD (Cohort 4 (n=5), imatinib 400 mg bid with nilotinib 400 mg bid, Day 8): 4285 ± 2325 ng/mL | Cmax (clinical [2]; 400 mg, Cohort 2 (n=6), imatinib 400 mg bid alone, Day -1): 2770 ± 1140 ng/mL | Cmax (clinical [2]; [8]): 4020 ± 2170 ng/mL | Cmax (clinical [2]; [9]): 4200 ± 1120 ng/mL | Cmax (clinical [2]; 400 mg, Cohort 4 (n=5), imatinib 400 mg bid alone, Day -1): 4170 ± 1760 ng/mL | Cmax (clinical [2]; 400 mg, Cohort 4 (n=5), imatinib 400 mg bid with nilotinib 400 mg bid, Day 8): 5070 ± 2760 ng/mL | Tmax (clinical [2]; [8]): 4.8 h | Tmax (clinical [2]; [9]): 2.4 h | Cmax (clinical [2]; [7]): 3370 ± 1120 ng/mL | Tmax (clinical [2]; [7]): 2.9 h
Structure (SMILES): Cc1ccc(NC(=O)c2ccc(CN3CCN(C)CC3)cc2)cc1Nc1nccc(-c2cccnc2)n1 [Imatinib]
Patients with primary resistance within the first 6 months of therapy ([1]; estimated): 5-14% | Median time of therapy until secondary resistance ([1]; most patients): 2 years | Median survival ([1]; surgically incurable GIST): ~5 years | Tumor control rates ([1]; surgically incurable GIST): > 80%

Structure (SMILES): Cc1cn(-c2cc(NC(=O)c3ccc(C)c(Nc4nccc(-c5cccnc5)n4)c3)cc(C(F)(F)F)c2)cn1 [Nilotinib]
Best overall response: Complete response ([3]; Nilotinib 400 mg bid n=18): 0 n (%) | Best overall response: Partial response ([3]; Nilotinib 400 mg bid n=18): 1 (6) n (%) | Best overall response: Progressive disease ([3]; Nilotinib 400 mg bid n=18): 2 (11) n (%) | Best overall response: Stable disease ([3]; Nilotinib 400 mg bid n=18): 13 (72) n (%) | Best overall response: Unknown (could not be classified) ([3]; Nilotinib 400 mg bid n=18): 1 (6) n (%) | Progression-free survival, Kaplan-Meier rate at 4 months ([3]; Nilotinib 400 mg bid n=18): 59% | Progression-free survival, Kaplan-Meier rate at 6 months ([3]; Nilotinib 400 mg bid n=18): 47% | Progression-free survival, median ([3]; Nilotinib 400 mg bid n=18): 168 days | Progression-free survival, range ([3]; Nilotinib 400 mg bid n=18): 1 to 393 days | Patients with stable disease ([3]; all cohorts): Thirty-eight | Discontinuation of study for disease progression ([3]; all cohorts, n=32): 60% | Progression-free survival, range ([3]; all patients): 1 to 393 days | Median progression-free survival ([3]; entire group, all patients): 134 days | Stable disease lasting >6 months ([3]; single-agent nilotinib group, 5 patients): 28% | Stable disease lasting >4 months ([3]; single-agent nilotinib group, 9 patients): 50% | Discontinuation of study for death ([4]; all cohorts, n=2): 4% | Abdominal pain, overall frequency of AE ([4]; human, in vivo): 36% | Discontinuation of study for AEs ([4]; human, in vivo): 6% | Fatigue, overall frequency of AE ([4]; human, in vivo): 38% | Grade 3 elevations of AST or ALT ([4]; human, in vivo): < 2% | Grade 3 or 4 laboratory abnormality: hyperbilirubinemia ([4]; human, in vivo): 8% | Grade 3 or 4 toxicities, patients overall ([4]; human, in vivo): 49% | Nausea, overall frequency of AE ([4]; human, in vivo): 36% | Post-baseline QTcF interval >480 msec ([4]; human, in vivo): 13% | QTcF >500 msec ([4]; human, in vivo): no QTcF >500 msec was reported | Rash, overall frequency of AE ([4]; human, in vivo): 40% | Severe AEs (grade 3 or 4): abdominal pain ([4]; human, in vivo): 13% | Dose deemed appropriate for Phase II studies ([4]; human, in vivo, 28 days): 400 mg bid | Dose-limiting toxicity: grade 3 hyperbilirubinemia, frequency ([4]; human, in vivo, 28 days): 6% | Thrombocytopenia episodes ([4]; in vivo): no episodes of thrombocytopenia | AUC(0-t) (clinical [5]): 13600 ± 6620 ng·h/mL | Cmax (clinical [5]; 400 mg bid): 1640 ± 828 ng/mL | Tmax (clinical [5]; 400 mg bid): 2.8 h | Slope of Cavg versus total nilotinib daily dose (power model) ([6]; combination cohorts): 0.946 | Slope of Cmax versus total nilotinib daily dose (power model) ([6]; combination cohorts): 0.881 | Nilotinib AUC0-t higher than in single-agent cohort ([6]; nilotinib 400 mg bid combination cohorts, second value): 18% | Nilotinib oral clearance, mean CL/F across the combination groups ([6]; nilotinib with imatinib, 4 combination cohorts): 19.1 to 25.6 L/h

Structure (SMILES): CCN(CC)CCNC(=O)c1c(C)[nH]c(/C=C2\C(=O)Nc3ccc(F)cc32)c1C [Sunitinib]
Duration of benefit of second-line therapy (GIST): approximately 9 months
